Activity calls are given as the source filed them. How the calls were made is not given here.
Tests used:
Assay in all cases: off-target hydrolase engagement by SILAC proteomics – cell-based, ABPP-SILAC, LC-MS, selectivity assay for DAGLb inhibitor project, late-stage follow-up (AID 602339)
Abhd4 = Abhd4 (UniProt Q8VD66); conditions: mouse cells, hits give low values
Abhd11 = conditions: mouse cells, hits give low values
[1] = target: Acyl-protein thioesterase 1 (Mus musculus) (UniProt P97823); conditions: mouse cells, Lypla1, hits give low values
Fam108b = conditions: mouse cells, hits give low values
Pnpla6 = conditions: mouse cells, hits give low values
Faah = conditions: mouse cells, hits give low values
Fam108c = conditions: mouse cells, hits give low values
Lactb = conditions: mouse cells, hits give low values
Iah1 = conditions: mouse cells, hits give low values
[2] = target: Monoacylglycerol lipase ABHD6 (Mus musculus) (UniProt Q8R2Y0); conditions: mouse cells, hits give low values
Bat5 = conditions: mouse cells, hits give low values
D230012E17Rik = conditions: mouse cells, hits give low values
Lypla2 = conditions: mouse cells, hits give low values
[3] = target: Diacylglycerol lipase-beta (Mus musculus) (UniProt Q91WC9); conditions: mouse cells, Daglb, hits give low values
Apeh = conditions: mouse cells, hits give low values
Ache = conditions: mouse cells, hits give low values
Scpep1 = conditions: mouse cells, hits give low values
Ctsa = conditions: mouse cells, hits give low values
Pnpla8 = conditions: mouse cells, hits give low values
Pafah1b2 = conditions: mouse cells, hits give low values
Plat = conditions: mouse cells, hits give low values
Lyplal1 = conditions: mouse cells, hits give low values
Qrsl1 = conditions: mouse cells, hits give low values
Serhl = conditions: mouse cells, hits give low values
Dpp9 = conditions: mouse cells, hits give low values
Parl = conditions: mouse cells, hits give low values
Tpp2 = conditions: mouse cells, hits give low values
[4] = target: Platelet-activating factor acetylhydrolase 2, cytoplasmic (Mus musculus) (UniProt Q8VDG7); conditions: mouse cells, Pafah2, hits give low values
Esd = conditions: mouse cells, hits give low values
Dpp7 = conditions: mouse cells, hits give low values
Ppt2 = conditions: mouse cells, hits give low values
Kiaa1363 = conditions: mouse cells, hits give low values
Pafah1b3 = conditions: mouse cells, hits give low values
Prepl = conditions: mouse cells, hits give low values
Lipe = conditions: mouse cells, hits give low values
Lypla3 = conditions: mouse cells, hits give low values
Lonp1 = conditions: mouse cells, hits give low values
Abhd12 = conditions: mouse cells, hits give low values
Fasn = conditions: mouse cells, hits give low values
Acot2 = conditions: mouse cells, hits give low values
[5] = target: Palmitoyl-protein thioesterase ABHD10, mitochondrial (Mus musculus) (UniProt Q6PE15); conditions: mouse cells, hits give low values
Ddhd1 = conditions: mouse cells, hits give low values
Htra2 = conditions: mouse cells, hits give low values
[6] = target: Prolyl endopeptidase (Mus musculus) (UniProt Q9QUR6); conditions: mouse cells, Prep, hits give low values
Pnpla7 = conditions: mouse cells, hits give low values
Pme1 = conditions: mouse cells, hits give low values

Prolyl endopeptidase (Mus musculus), sequence (Q9QUR6 whole entry, looked up): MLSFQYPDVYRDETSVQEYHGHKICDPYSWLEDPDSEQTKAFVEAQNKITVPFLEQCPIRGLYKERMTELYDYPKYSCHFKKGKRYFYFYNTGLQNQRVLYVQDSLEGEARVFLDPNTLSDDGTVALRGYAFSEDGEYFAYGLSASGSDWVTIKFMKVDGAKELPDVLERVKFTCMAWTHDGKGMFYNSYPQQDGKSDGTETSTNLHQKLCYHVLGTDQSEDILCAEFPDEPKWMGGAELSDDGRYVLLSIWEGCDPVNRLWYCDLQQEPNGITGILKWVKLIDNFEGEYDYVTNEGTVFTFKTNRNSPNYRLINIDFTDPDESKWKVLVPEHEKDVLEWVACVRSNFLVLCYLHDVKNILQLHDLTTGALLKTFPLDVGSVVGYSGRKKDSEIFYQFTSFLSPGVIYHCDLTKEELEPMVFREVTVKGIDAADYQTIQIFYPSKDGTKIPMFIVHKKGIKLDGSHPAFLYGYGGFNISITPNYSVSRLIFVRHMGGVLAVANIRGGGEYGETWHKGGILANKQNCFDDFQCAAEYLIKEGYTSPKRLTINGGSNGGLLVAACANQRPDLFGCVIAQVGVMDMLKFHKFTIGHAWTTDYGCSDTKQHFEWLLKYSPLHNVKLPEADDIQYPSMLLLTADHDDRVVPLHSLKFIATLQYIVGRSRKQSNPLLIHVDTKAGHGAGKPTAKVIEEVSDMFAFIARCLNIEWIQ
Monoacylglycerol lipase ABHD6 (Mus musculus), sequence (Q8R2Y0 whole entry, looked up): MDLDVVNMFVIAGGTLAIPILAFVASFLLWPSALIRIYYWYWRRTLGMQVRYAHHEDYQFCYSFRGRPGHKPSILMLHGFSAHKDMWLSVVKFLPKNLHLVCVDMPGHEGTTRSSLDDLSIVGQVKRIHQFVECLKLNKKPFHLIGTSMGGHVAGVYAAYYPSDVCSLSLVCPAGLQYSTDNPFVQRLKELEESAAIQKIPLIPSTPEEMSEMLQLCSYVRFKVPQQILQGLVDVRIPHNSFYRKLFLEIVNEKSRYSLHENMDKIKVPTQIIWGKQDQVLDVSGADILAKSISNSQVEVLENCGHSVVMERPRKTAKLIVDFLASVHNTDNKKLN
Abhd4, sequence (Q8VD66 whole entry, looked up): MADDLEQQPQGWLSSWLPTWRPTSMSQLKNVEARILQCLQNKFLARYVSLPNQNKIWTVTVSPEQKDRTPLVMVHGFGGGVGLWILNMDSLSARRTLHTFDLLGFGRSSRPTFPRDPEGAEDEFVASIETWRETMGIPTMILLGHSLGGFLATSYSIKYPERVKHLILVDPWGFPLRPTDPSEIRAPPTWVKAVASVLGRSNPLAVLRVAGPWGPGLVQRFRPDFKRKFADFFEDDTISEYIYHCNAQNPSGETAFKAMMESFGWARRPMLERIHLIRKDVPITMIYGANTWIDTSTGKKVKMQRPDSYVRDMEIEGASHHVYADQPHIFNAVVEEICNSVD
Acyl-protein thioesterase 1 (Mus musculus), sequence (P97823 whole entry, looked up): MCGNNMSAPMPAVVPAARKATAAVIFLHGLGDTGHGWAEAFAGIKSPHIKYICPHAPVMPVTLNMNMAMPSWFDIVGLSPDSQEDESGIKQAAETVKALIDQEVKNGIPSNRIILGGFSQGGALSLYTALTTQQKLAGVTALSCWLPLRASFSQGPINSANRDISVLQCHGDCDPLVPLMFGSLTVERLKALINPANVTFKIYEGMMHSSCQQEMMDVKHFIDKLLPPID
Palmitoyl-protein thioesterase ABHD10, mitochondrial (Mus musculus), sequence (Q6PE15 whole entry, looked up): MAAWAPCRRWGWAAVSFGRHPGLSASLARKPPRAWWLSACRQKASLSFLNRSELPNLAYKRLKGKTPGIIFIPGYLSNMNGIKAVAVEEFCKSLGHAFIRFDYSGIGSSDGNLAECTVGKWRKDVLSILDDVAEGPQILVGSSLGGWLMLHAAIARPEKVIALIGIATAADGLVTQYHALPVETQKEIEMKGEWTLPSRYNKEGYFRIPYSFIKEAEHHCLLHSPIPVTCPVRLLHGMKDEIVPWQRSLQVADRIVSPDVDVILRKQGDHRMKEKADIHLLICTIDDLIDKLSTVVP
Diacylglycerol lipase-beta (Mus musculus), sequence (Q91WC9 whole entry, looked up): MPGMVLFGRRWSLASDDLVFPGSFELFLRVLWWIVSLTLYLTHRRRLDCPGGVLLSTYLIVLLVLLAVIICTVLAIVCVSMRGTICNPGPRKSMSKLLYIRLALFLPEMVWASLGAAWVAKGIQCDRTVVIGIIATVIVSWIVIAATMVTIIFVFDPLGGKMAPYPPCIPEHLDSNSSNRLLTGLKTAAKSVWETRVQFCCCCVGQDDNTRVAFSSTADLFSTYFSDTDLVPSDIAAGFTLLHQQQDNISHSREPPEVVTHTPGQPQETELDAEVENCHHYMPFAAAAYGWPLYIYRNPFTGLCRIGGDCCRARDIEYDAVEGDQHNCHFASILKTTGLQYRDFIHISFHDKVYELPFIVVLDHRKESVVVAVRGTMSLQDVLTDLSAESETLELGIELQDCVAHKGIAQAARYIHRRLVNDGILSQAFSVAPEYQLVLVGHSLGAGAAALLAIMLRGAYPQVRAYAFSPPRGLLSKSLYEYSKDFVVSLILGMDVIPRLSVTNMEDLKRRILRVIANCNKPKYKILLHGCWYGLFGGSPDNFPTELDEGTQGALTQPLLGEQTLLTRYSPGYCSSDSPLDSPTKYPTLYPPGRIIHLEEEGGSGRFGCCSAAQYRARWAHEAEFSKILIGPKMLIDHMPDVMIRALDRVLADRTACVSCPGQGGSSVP
Platelet-activating factor acetylhydrolase 2, cytoplasmic (Mus musculus), sequence (Q8VDG7 whole entry, looked up): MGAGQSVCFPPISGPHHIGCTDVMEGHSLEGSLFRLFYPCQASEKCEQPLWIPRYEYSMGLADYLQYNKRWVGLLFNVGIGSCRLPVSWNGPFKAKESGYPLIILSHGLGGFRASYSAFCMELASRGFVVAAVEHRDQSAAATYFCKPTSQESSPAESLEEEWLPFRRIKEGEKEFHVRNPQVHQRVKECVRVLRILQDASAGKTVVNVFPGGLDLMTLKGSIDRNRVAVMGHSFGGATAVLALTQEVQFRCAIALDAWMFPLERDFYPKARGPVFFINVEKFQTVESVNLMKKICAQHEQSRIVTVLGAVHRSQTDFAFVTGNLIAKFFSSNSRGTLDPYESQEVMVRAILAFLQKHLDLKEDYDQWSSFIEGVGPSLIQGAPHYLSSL

## COc1ccccc1-c1ccc(-c2cn(C(=O)N3CCCCC3Cc3ccccc3)nn2)cc1 (stereo unspecified)
Abhd4
  SILAC ratio (treated/control probe labeling): 0.96 (inactive)
Abhd11
  SILAC ratio (treated/control probe labeling): 1.41 (inactive)
[1]
  SILAC ratio (treated/control probe labeling): 0.93 (inactive)
Fam108b
  SILAC ratio (treated/control probe labeling): 1.16 (inactive)
Pnpla6
  SILAC ratio (treated/control probe labeling): 1.22 (inactive)
Faah
  SILAC ratio (treated/control probe labeling): 1.06 (inactive)
Fam108c
  SILAC ratio (treated/control probe labeling): 1.2 (inactive)
Lactb
  SILAC ratio (treated/control probe labeling): 1.17 (inactive)
Iah1
  SILAC ratio (treated/control probe labeling): 1.06 (inactive)
[2]
  SILAC ratio (treated/control probe labeling): 0.17
Bat5
  SILAC ratio (treated/control probe labeling): 1.33 (inactive)
D230012E17Rik
  SILAC ratio (treated/control probe labeling): 1.19 (inactive)
Lypla2
  SILAC ratio (treated/control probe labeling): 1.01 (inactive)
[3]
  SILAC ratio (treated/control probe labeling): 0.11
Apeh
  SILAC ratio (treated/control probe labeling): 0.97 (inactive)
Ache
  SILAC ratio (treated/control probe labeling): 1.39 (inactive)
Scpep1
  SILAC ratio (treated/control probe labeling): 1.46 (inactive)
Ctsa
  SILAC ratio (treated/control probe labeling): 1.5 (inactive)
Pnpla8
  SILAC ratio (treated/control probe labeling): 1.26 (inactive)
Pafah1b2
  SILAC ratio (treated/control probe labeling): 1.03 (inactive)
Plat
  SILAC ratio (treated/control probe labeling): 2.04 (inactive)
Lyplal1
  SILAC ratio (treated/control probe labeling): 1.47 (inactive)
Qrsl1
  SILAC ratio (treated/control probe labeling): 1.45 (inactive)
Serhl
  SILAC ratio (treated/control probe labeling): 1.38 (inactive)
Dpp9
  SILAC ratio (treated/control probe labeling): 0.94 (inactive)
Parl
  SILAC ratio (treated/control probe labeling): 1.07 (inactive)
Tpp2
  SILAC ratio (treated/control probe labeling): 0.83 (inactive)
[4]
  SILAC ratio (treated/control probe labeling): 0.98 (inactive)
Esd
  SILAC ratio (treated/control probe labeling): 1.13 (inactive)
Dpp7
  SILAC ratio (treated/control probe labeling): 1.19 (inactive)
Ppt2
  SILAC ratio (treated/control probe labeling): 1.37 (inactive)
Kiaa1363
  SILAC ratio (treated/control probe labeling): 1.32 (inactive)
Pafah1b3
  SILAC ratio (treated/control probe labeling): 0.99 (inactive)
Prepl
  SILAC ratio (treated/control probe labeling): 1 (inactive)
Lipe
  SILAC ratio (treated/control probe labeling): 1.12 (inactive)
Lypla3
  SILAC ratio (treated/control probe labeling): 0.97 (inactive)
Lonp1
  SILAC ratio (treated/control probe labeling): 1.86 (inactive)
Abhd12
  SILAC ratio (treated/control probe labeling): 1.15 (inactive)
Fasn
  SILAC ratio (treated/control probe labeling): 1.1 (inactive)
Acot2
  SILAC ratio (treated/control probe labeling): 1.36 (inactive)
[5]
  SILAC ratio (treated/control probe labeling): 1.02 (inactive)
Ddhd1
  SILAC ratio (treated/control probe labeling): 0.99 (inactive)
Htra2
  SILAC ratio (treated/control probe labeling): 1.33 (inactive)
[6]
  SILAC ratio (treated/control probe labeling): 1 (inactive)
Pnpla7
  SILAC ratio (treated/control probe labeling): 1.43 (inactive)
Pme1
  SILAC ratio (treated/control probe labeling): 1.08 (inactive)
